# Assay results: patent EP2607478A1, “Phenanthroline treated MSC” (Universiteit Twente, priority 2011, dated 2013)
# Tested on: MSCs
# Test: Whole genome expression analysis (Illumina microarray) of treated MSCs
# Format: cell-based, Human
# Conditions: DFO versus Bas
# Procedure: MSCs were seeded in T25 flasks at 5000 cells/cm^2 and allowed to attach overnight in proliferation medium. […] After 48 hours, RNA was isolated as described above. From 500 ng of RNA, cRNA was synthesized using the Illumina TotalPrep RNA amplification Kit (Ambion), according to the manufacturer's protocol and the quality of RNA and cRNA was verified on a Bioanalyzer 2100 (Agilent). Microarrays were performed using Illumina HT-12 v4 expression Beadchips, according to the manufacturer's protocol. Briefly, 750 ng of cRNA was hybridized on the array overnight after which the array was washed and blocked. Then, by addition of streptavidin Cy-3 a fluorescent signal was developed. Arrays were scanned on an Illumina iScan reader and raw intensity values were background corrected in GenomeStudio (Illumina). Further data processing and statistical testing were performed with R and Bioconductor statistical software (www.bioconductor.org), using package lumi. Raw intensity values were transformed using variance stabilization and a quantile normalization was performed. A linear modelling approach with empirical Bayesian methods, as implemented in Limma package (54), was applied for differential expression analysis of the resulting probe-level expression values. A gene list, containing only those genes with an absolute 1.5-fold change between different treatments, was uploaded to Ingenuity Pathway Analysis (IPA) software and used for core analysis. Pathways or networks with a p-value of 0.05 were considered statistically significant.
smiles,measurement,setting,value
"CC(=O)N(O)CCCCCNC(=O)CCC(=O)N(O)CCCCCNC(=O)CCC(=O)N(O)CCCCCN [DFO, reference compound]",logFC(D142_ DFO - D142_BAS) KCNK2,ProbeID ILMN_1765990,"-2,07"
same,logFC(D142_ DFO - D142_BAS) C10orf10,ProbeID ILMN_1767556,"3,15"
same,logFC(D142_ DFO - D142_BAS) BTG2,ProbeID ILMN_1770085,"2,57"
same,logFC(D142_ DFO - D142_BAS) KRT34,ProbeID ILMN_1770228,"3,81"
same,logFC(D142_ DFO - D142_BAS) CNN2,ProbeID ILMN_1770290,"-2,29"
same,logFC(D142_ DFO - D142_BAS) ANGPTL2,ProbeID ILMN_1772612,"-2,31"
same,logFC(D142_ DFO - D142_BAS) ZNF395,ProbeID ILMN_1772876,"2,75"
same,logFC(D142_ DFO - D142_BAS) GAS1,ProbeID ILMN_1772910,"-3,12"
same,logFC(D142_ DFO - D142_BAS) DKK1,ProbeID ILMN_1773337,"2,79"
same,logFC(D142_ DFO - D142_BAS) FBLN2,ProbeID ILMN_1774602,"-2,23"
same,logFC(D142_ DFO - D142_BAS) SLC2A3,ProbeID ILMN_1775708,"2,53"
same,logFC(D142_ DFO - D142_BAS) KCTD11,ProbeID ILMN_1777513,"2,12"
same,logFC(D142_ DFO - D142_BAS) LOC644774,ProbeID ILMN_1779258,"2,61"
same,logFC(D142_ DFO - D142_BAS) CPA4,ProbeID ILMN_1784294,"5,59"
same,logFC(D142_ DFO - D142_BAS) SPOCD1,ProbeID ILMN_1784948,"-2,53"
same,logFC(D142_ DFO - D142_BAS) PRKD1,ProbeID ILMN_1785891,"-2,05"
same,logFC(D142_ DFO - D142_BAS) UHRF1,ProbeID ILMN_1786065,"-2,34"
same,logFC(D142_ DFO - D142_BAS) CDKN1A,ProbeID ILMN_1787212,"2,78"
same,logFC(D142_ DFO - D142_BAS) TRIB3,ProbeID ILMN_1787815,"3,16"
same,logFC(D142_ DFO - D142_BAS) COL11A1,ProbeID ILMN_1789507,"-2,55"
same,logFC(D142_ DFO - D142_BAS) GBE1,ProbeID ILMN_1789702,"2,29"
same,logFC(D142_ DFO - D142_BAS) PRRX2,ProbeID ILMN_1790338,"-2,49"
same,logFC(D142_ DFO - D142_BAS) LUM,ProbeID ILMN_1790529,"-3,27"
same,logFC(D142_ DFO - D142_BAS) CXCL12,ProbeID ILMN_1791447,"-2,57"
same,logFC(D142_ DFO - D142_BAS) DPYSL4,ProbeID ILMN_1792356,"3,05"
same,logFC(D142_ DFO - D142_BAS) TMEM158,ProbeID ILMN_1792455,"2,58"
same,logFC(D142_ DFO - D142_BAS) SERTAD1,ProbeID ILMN_1794017,"2,25"
same,logFC(D142_ DFO - D142_BAS) CAMK2N1,ProbeID ILMN_1794863,"2,65"
same,logFC(D142_ DFO - D142_BAS) PTP4A2,ProbeID ILMN_1795697,"2,22"
same,logFC(D142_ DFO - D142_BAS) ASNS,ProbeID ILMN_1796417,"2,93"
same,logFC(D142_ DFO - D142_BAS) HMGCS1,ProbeID ILMN_1797728,"-2,09"
same,logFC(D142_ DFO - D142_BAS) PTPRF,ProbeID ILMN_1798081,"2,28"
same,logFC(D142_ DFO - D142_BAS) AK3L1,ProbeID ILMN_1798249,"2,66"
same,logFC(D142_ DFO - D142_BAS) PLIN2,ProbeID ILMN_1801077,"2,94"
same,logFC(D142_ DFO - D142_BAS) FAM162A,ProbeID ILMN_1803647,"2,50"
same,logFC(D142_ DFO - D142_BAS) CXCL12,ProbeID ILMN_1803825,"-2,19"
same,logFC(D142_ DFO - D142_BAS) VEGFA,ProbeID ILMN_1803882,"3,15"
same,logFC(D142_ DFO - D142_BAS) FMO3,ProbeID ILMN_1808657,"-2,46"
same,logFC(D142_ DFO - D142_BAS) PGF,ProbeID ILMN_1809813,"2,55"
same,logFC(D142_ DFO - D142_BAS) NDRG1,ProbeID ILMN_1809931,"3,57"
same,logFC(D142_ DFO - D142_BAS) SFRP4,ProbeID ILMN_1810172,"-2,03"
same,logFC(D142_ DFO - D142_BAS) FAM129A,ProbeID ILMN_1810725,"2,88"
same,logFC(D142_ DFO - D142_BAS) PDE5A,ProbeID ILMN_1810836,"-2,08"
same,logFC(D142_ DFO - D142_BAS) LOC402221,ProbeID ILMN_1811909,"-2,22"
same,logFC(D142_ DFO - D142_BAS) FAM20A,ProbeID ILMN_1812091,"-2,11"
same,logFC(D142_ DFO - D142_BAS) SOX18,ProbeID ILMN_1812968,"-2,09"
same,logFC(D142_ DFO - D142_BAS) FKSG30,ProbeID ILMN_1814998,"-2,25"
same,logFC(D142_ DFO - D142_BAS),ProbeID ILMN_1843198 (no gene name printed),"3,25"
same,logFC(D142_ DFO - D142_BAS),ProbeID ILMN_1890614 (no gene name printed),"3,41"
same,logFC(D142_ DFO - D142_BAS) SNORD13,ProbeID ILMN_1892403,"2,51"
same,logFC(D142_ DFO - D142_BAS) GADD45A,ProbeID ILMN_2052208,"2,60"
same,logFC(D142_ DFO - D142_BAS) LDLR,ProbeID ILMN_2053415,"-2,03"
same,logFC(D142_ DFO - D142_BAS) PTGS2,ProbeID ILMN_2054297,"2,25"
same,logFC(D142_ DFO - D142_BAS) GAS1,ProbeID ILMN_2062701,"-2,07"
same,logFC(D142_ DFO - D142_BAS) PMAIP1,ProbeID ILMN_2098446,"2,11"
same,logFC(D142_ DFO - D142_BAS) GOLGA8B,ProbeID ILMN_2103547,"2,12"
same,logFC(D142_ DFO - D142_BAS) EEF1A2,ProbeID ILMN_2108735,"2,72"
same,logFC(D142_ DFO - D142_BAS) CTHRC1,ProbeID ILMN_2117508,"-2,46"
same,logFC(D142_ DFO - D142_BAS) HBEGF,ProbeID ILMN_2121408,"2,13"
same,logFC(D142_ DFO - D142_BAS) IGFBP5,ProbeID ILMN_2132982,"2,53"
same,logFC(D142_ DFO - D142_BAS) PLIN2,ProbeID ILMN_2138765,"2,74"
same,logFC(D142_ DFO - D142_BAS) HIST2H2AA3,ProbeID ILMN_2144426,"2,07"
same,logFC(D142_ DFO - D142_BAS) GBP1,ProbeID ILMN_2148785,"-2,41"
same,logFC(D142_ DFO - D142_BAS) SERPINB2,ProbeID ILMN_2150851,"3,06"
same,logFC(D142_ DFO - D142_BAS) SERPINB2,ProbeID ILMN_2150856,"3,04"
same,logFC(D142_ DFO - D142_BAS) ALDH1B1,ProbeID ILMN_2150894,"-2,55"
same,logFC(D142_ DFO - D142_BAS) LUM,ProbeID ILMN_2167805,"-2,01"
same,logFC(D142_ DFO - D142_BAS) PFKFB3,ProbeID ILMN_2186061,"4,03"
same,logFC(D142_ DFO - D142_BAS) RRAD,ProbeID ILMN_2186137,"3,12"
same,logFC(D142_ DFO - D142_BAS) GDF15,ProbeID ILMN_2188862,"6,31"
same,logFC(D142_ DFO - D142_BAS) HSPB7,ProbeID ILMN_2200836,"-2,12"
same,logFC(D142_ DFO - D142_BAS) TP53INP1,ProbeID ILMN_2214197,"2,62"
same,logFC(D142_ DFO - D142_BAS) PGK1,ProbeID ILMN_2216852,"2,75"
same,logFC(D142_ DFO - D142_BAS) KIFC1,ProbeID ILMN_2222008,"-2,05"
same,logFC(D142_ DFO - D142_BAS) BEX1,ProbeID ILMN_2234697,"-3,45"
same,logFC(D142_ DFO - D142_BAS) LEPR,ProbeID ILMN_2234956,"-2,33"
same,logFC(D142_ DFO - D142_BAS) UBE2C,ProbeID ILMN_2301083,"-2,01"
same,logFC(D142_ DFO - D142_BAS) VCAM1,ProbeID ILMN_2307903,"-3,16"
same,logFC(D142_ DFO - D142_BAS) MAFF,ProbeID ILMN_2322375,"2,07"
same,logFC(D142_ DFO - D142_BAS) PORCN,ProbeID ILMN_2337058,"2,69"
same,logFC(D142_ DFO - D142_BAS) AK3L1,ProbeID ILMN_2338038,"2,28"
same,logFC(D142_ DFO - D142_BAS) FMO3,ProbeID ILMN_2344283,"-2,30"
same,logFC(D142_ DFO - D142_BAS) MKNK2,ProbeID ILMN_2347068,"2,45"
same,logFC(D142_ DFO - D142_BAS) BIRC5,ProbeID ILMN_2349459,"-2,14"
same,logFC(D142_ DFO - D142_BAS) VLDLR,ProbeID ILMN_2361862,"3,17"
same,logFC(D142_ DFO - D142_BAS) ATF3,ProbeID ILMN_2374865,"3,23"
same,logFC(D142_ DFO - D142_BAS) VEGFA,ProbeID ILMN_2375879,"3,40"
same,logFC(D142_ DFO - D142_BAS) KCNK2,ProbeID ILMN_2376953,"-2,07"
same,logFC(D142_ DFO - D142_BAS) ANGPTL4,ProbeID ILMN_2386444,"2,64"
same,logFC(D142_ DFO - D142_BAS) IGFBP1,ProbeID ILMN_2387385,"2,45"
same,logFC(D142_ DFO - D142_BAS) MTHFD2,ProbeID ILMN_2405521,"2,84"
same,logFC(D142_ DFO - D142_BAS) PODXL,ProbeID ILMN_2413158,"2,92"
same,logFC(D142_ DFO - D142_BAS) LOC100133609,ProbeID ILMN_3237270,"2,49"
same,logFC(D142_ DFO - D142_BAS) BEND5,ProbeID ILMN_3237448,"2,61"
same,logFC(D142_ DFO - D142_BAS) HIST2H2AA4,ProbeID ILMN_3242900,"2,11"
same,logFC(D142_ DFO - D142_BAS) LOC644350,ProbeID ILMN_3248701,"2,60"
same,logFC(D142_ DFO - D142_BAS) LOC728934,ProbeID ILMN_3248758,"2,47"
same,logFC(D142_ DFO - D142_BAS) LOC644237,ProbeID ILMN_3283772,"2,17"
same,logFC(D142_ DFO - D142_BAS) LOC729779,ProbeID ILMN_3305273,"3,12"
